Counter-ions that a name gives are not always drawn.
melting point	SMILES
90 to 92 °C	CN/C(=N/c1cc(C)c(C(=O)OCc2ccccc2C)cc1C)OC
172 to 176 °C	CCN(C)/C=N/c1ccc(C(=O)OCc2cccc(C(F)(F)F)c2)c(C)c1C (as salt: hydrochloride)

Reference: patent US20220220068A1 (published 2022)
